Test results reported in patent US8389555B2, “Medicaments” (Motac Neuroscience Limited, priority 2007, dated 2013).
Structures can show the parent of a compound that is named as a salt.

Legend:
[1] = target: T1, human dopamine D3 receptors (Homo sapiens, UniProt P35462); assay: Dopamine D3 receptor binding assay ([3H]spiperone, CHO cell membranes); conditions: for Ki: human D3 receptors in CHO cells, 0.2 nM [3H]spiperone, mean ± SEM, read-out: Affinity Ki (D3); for Selectivity Ki(D2)/Ki(D3): ratio of Ki(D2) to Ki(D3)
T1 construct: expressed in transfected cells
T1 sequence (P35462 whole entry): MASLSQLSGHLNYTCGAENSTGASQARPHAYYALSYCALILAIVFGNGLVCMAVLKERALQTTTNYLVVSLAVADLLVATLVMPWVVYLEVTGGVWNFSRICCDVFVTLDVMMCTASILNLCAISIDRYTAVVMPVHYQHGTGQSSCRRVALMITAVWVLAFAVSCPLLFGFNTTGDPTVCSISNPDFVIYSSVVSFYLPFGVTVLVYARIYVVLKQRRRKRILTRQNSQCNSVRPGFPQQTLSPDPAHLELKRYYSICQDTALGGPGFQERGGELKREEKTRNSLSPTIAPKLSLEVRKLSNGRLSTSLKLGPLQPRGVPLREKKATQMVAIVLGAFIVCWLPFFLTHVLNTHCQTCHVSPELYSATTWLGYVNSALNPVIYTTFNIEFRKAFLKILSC
Method: (§1) Compounds synthesized in Examples A, B, C and D were assayed to test their affinity for dopamine D3 and D2 receptors.
(§2) METHODS: Dopamine D2S and D3 Receptor Binding Assays
Human D3 receptors stably expressed in CHO cells were used as described by Sokoloff et al. (Sokoloff, P. et al., Eur. J. Pharmacol. 1992, 225, 331-337). The cell line was cultured in Dulbecco's modified Eagle's medium supplemented with 2 mM glutamine, and 10% dialyzed fetal bovine serum, and were grown in an atmosphere of 5% CO2 at 37° C. (Gibco™).
(§3) Human D2S- and D3 receptors expressing cell lines were grown to confluence. The medium was removed, and the cells were washed with 10 ml PBS buffer (140 mM NaCl, 3 mM KCl, 1.5 mM KH2PO4, 8 mM Na2HPO4, pH 7.4) at 4° C. After removing the wash buffer, the cells were scraped from the flasks into 15 ml of ice-cold media, and centrifuged at 3,000 rpm for 10 minutes at 4° C. After centrifugation the medium was removed and the […] resuspended in ice-cold Tris-HCl buffer containing 5 mM MgCl2, pH 7.4 and disrupted with a Polytron and centrifuged at 20,000 rpm, for 30 minutes at 4° C. The pellet was resuspended by sonication in ice-cold Tris-HCl buffer (containing 5 mM MgCl2, pH 7.4), membrane aliquots were stored at −70° C. Determination of membrane protein was carried out by the method of Bradford (Bradford, M. M. Anal Biochem 1976, 72, 248-54).
(§4) Cell membranes containing human D2S and D3 receptors from CHO cells were thawed, rehomogenized with sonication at 4° C. in Tris-HCl, pH 7.4 containing 120 mM NaCl, 5 mM KCl, 2 mM CaCl2 and 1 mM MgCl2 (incubation buffer), and incubated with 0.2 nM [^3H]spiperone (106 Ci·mmol^−1, Amersham Biosciences, Freiburg, Germany), and drug diluted in incubation buffer. Non-specific binding was determined in the presence of 10 μM BP 897 ((Wermuth, C. G. et al. in Chem. Abstr. (Eur. Pat. 0779284, 1997)). Incubations were run at 25° C. for 120 min, and terminated by rapid filtration through PerkinElmer GF/B glass fibre filters (PerkinElmer Life Sciences, Rodgau, Germany) coated in 0.3% polyethylenimine (Sigma-Aldrich, Taufkirchen, Germany) using an Inotech cell harvester (Inotech AG, Dottikon, Switzerland). Unbound radioligand was removed with four washes of 1 ml of ice-cold 50 mM Tris-HCl buffer, pH 7.4, containing 120 mM NaCl. The filters were soaked in 9 ml Beta plate scint scintillator and counted using a PerkinElmer MicroBeta®Trilux scintillation counter (PerkinElmer Life Sciences). Competition binding data were analyzed by the software GraphPad Prism™ (2000, version 3.02, San Diego, Calif., USA), using non-linear least squares fit. For detailed screening the compounds have been tested at seven concentrations in triplicate carrying out three to five separate binding experiments for human dopamine D2S and for human dopamine D3 receptors and expressed as mean±standard error of the mean (SEM). Ki values were calculated from the IC50 values according to Cheng-Prusoff equation (Cheng, Y. C., Prusoff, W. H. Biochem. Pharmacol. 1973, 22, 3099-3108.).

[2] = target: T2, recombinant human D2(short) dopamine receptor (Homo sapiens, UniProt P14416); assay: Dopamine D2S receptor binding assay ([3H]spiperone, CHO cell membranes); conditions: human D2S receptors in CHO cells, 0.2 nM [3H]spiperone, mean ± SEM; read-out: Affinity Ki (D2)
T2 construct: expressed in transfected cells; host or cells: CHO-D2S cells (per Hayes et al. 1992)
T2 sequence (P14416 1-414 isoform P14416-2): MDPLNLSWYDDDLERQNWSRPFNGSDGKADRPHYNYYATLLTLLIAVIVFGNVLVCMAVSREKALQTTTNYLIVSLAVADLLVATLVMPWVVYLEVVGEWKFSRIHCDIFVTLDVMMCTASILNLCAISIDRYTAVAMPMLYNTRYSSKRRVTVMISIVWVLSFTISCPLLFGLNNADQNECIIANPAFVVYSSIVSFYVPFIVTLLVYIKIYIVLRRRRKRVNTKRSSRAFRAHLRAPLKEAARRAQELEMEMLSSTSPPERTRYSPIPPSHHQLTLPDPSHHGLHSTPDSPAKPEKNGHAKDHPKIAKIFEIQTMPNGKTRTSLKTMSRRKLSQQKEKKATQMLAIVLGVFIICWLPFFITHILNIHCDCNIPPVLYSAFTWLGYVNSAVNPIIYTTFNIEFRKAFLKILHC
Method: as §1, §2
CHO-D2S cells, expressing the recombinant human D2(short) dopamine receptor gene, (Hayes, G. et al., J. Mol. Endocrinol. 1992, 6, 920-926) were grown in Dulbecco's modified Eagle's medium/nutrient mixture F12 1:1 mixture supplemented with 2 mM glutamine, 10% fetal bovine serum, and 10 μl·ml^−1 penicillin/streptomycin in an atmosphere of 5% CO2 at 37° C. (Gibco™, Karlsruhe, Germany).
as §3, §4

[3] = test system: 6-OHDA-lesioned rat model of Parkinson's disease; assay: Rotational behaviour in 6-OHDA-lesioned rat model of Parkinson's disease; format: in vivo; conditions: for onset of action / short or long acting in vivo: in vivo model; for onset and persistence of activity: following oral or intra-peritoneal application, FIGS. 12, 16, 17
Method: Preparation of 6-OHDA-Lesioned Rat Model of Parkinson's Disease
Male Sprague-Dawley rats weighing 290-350 g were used. The rats were housed in a temperature-controlled room under a 12 hour light/dark cycle with free access to food and water. Thirty minutes prior to surgery, the animals were given the monoamine oxidase-B inhibitor pargyline (5 mg/kg i.p.;) and the noradrenaline uptake inhibitor desipramine (25 mg/kg i.p.). The rats were then placed under general anaesthesia (Flourothane) and immobilised in stereotaxic frame. Following reflection of cranial skin and periostium, a small bur-hole was made in the skull on the right side and a small puncture was made in the dura mater. Each animal then received a unilateral injection of 2.5 μl of the neurotoxin 6-hydroxydopamine hydrobromide (6-OHDA HBr; 5 mg/ml in sterile water with 0.1% ascorbic acid; i.e. 12.5 μg 6-OHDA per rat) into the right medial forebrain bundle at stereotaxic co-ordinates −2.8 mm from bregma, 2 mm lateral to the midline, and 9 mm below the skull. The 6-OHDA injection was made over a 5 minute period using a 5 μl Hamilton syringe. The rats were allowed to recover for 3 weeks following the lesion. Animals then received 0.05 mg/kg s.c. apomorphine to assess the extent of lesion. Animals displaying clear rotational behaviour directed contralateral to the lesioned side were selected for further studies.
Only lesioned animals were used in the study (as determined by apomorphine rotation).
Animals were administered a dose of the test compound at 1 mg/kg or 3 mg/kg (i.p.) and rotational behaviour was assessed for up to 4 hours following drug administration using automated rotometers. Alternatively, animals were administered a dose of the test compound at 10 mg/kg (p.o.) and rotational behaviour was assessed for up to 8 hours following drug administration using automated rotometers.
Each compound was administered to at least 5 rats.
Total net rotational activity. This parameter is calculated as the total number of 180° rotations (net contralateral) over the duration of the experiment.
Data were analysed independently for each novel compound with appropriate parametric statistics. All tests were carried out in Graphpad Prism Version 3.

[4] = patients treated with pramipexole; cited from earlier work

| Compound | Ki [1] [nM] | Selectivity Ki(D2)/Ki(D3) [1] | Ki [2] [nM] | melting point [°C] | onset of action [3] | short or long acting in vivo [3] | onset and persistence of activity [3] | action at increasing doses ([3]; i.p. at 1 and 3 mg/kg) | patients who may develop oedema [4] |
| --- | --- | --- | --- | --- | --- | --- | --- | --- | --- |
| CCCN(CCCCC(=O)Nc1ccc2ccccc2c1)C1CCc2ncsc2C1 (centres unmarked) [Compound 9, 5-[Propyl-(4,5,6,7-tetrahydro-benzothiazol-6-yl)-amino]-pentanoic acid naphthalen-2-ylamide] | 0.55 ± 0.19 | 542 | 299 ± 38 | – | fast acting | short acting | – | – | – |
| CCCN(CCCCNC(=O)N1CCc2ccccc2C1)C1CCc2ncsc2C1 (centres unmarked) [Compound 24, 3,4-Dihydro-1H-isoquinoline-2-carboxylic acid {4-[propyl-(4,5,6,7-tetrahydro-benzothiazol-6-yl)-amino]-butyl}-amide] | 3.95 ± 1.17 | 394 | 1560 ± 464 | – | – | short acting | – | – | – |
| CCCN(CCCCNC(=O)N1CCc2cc(OC)c(OC)cc2C1)C1CCc2ncsc2C1 (centres unmarked) [Compound 25, 6,7-Dimethoxy-3,4-dihydro-1H-isoquinoline-2-carboxylic acid {4-[propyl-(4,5,6,7-tetrahydro-benzothiazol-6-yl)-amino]-butyl}-amide] | 2.67 ± 1.32 | 2850 | 7610 ± 1810 | – | – | short acting | – | – | – |
| CCN(CCN(CC)C1CCc2ncsc2C1)C1CCc2ncsc2C1 (centres unmarked) [Compound 33, N,N′-Diethyl-N,N′-bis-(4,5,6,7-tetrahydro-benzothiazol-6-yl)-ethane-1,2-diamine] | 22.7 ± 13.5 | 19 | 468 ± 13.5 | – | – | – | rapid onset of activity and also have a sustained effect | – | – |
| CCCN(CCN1CCN(c2ccccc2OC)CC1)C1CCc2ncsc2C1 (centres unmarked) [Compound 34, {2-[4-(2-Methoxy-phenyl)-piperazin-1-yl]-ethyl}-propyl-(4,5,6,7-tetrahydro-benzothiazol-6-yl)-amine] | 4.5 ± 0.7 | 29 | 132 ± 40 | – | fast acting | – | rapid onset of activity and also have a sustained effect | substantially constant action | – |
| CCCN(CCN1CCN(c2cccc(Cl)c2Cl)CC1)C1CCc2ncsc2C1 (centres unmarked) [Compound 35, {2-[4-(2,3 -Dichloro-phenyl)-piperazin-1-yl]-ethyl}-propyl-(4,5,6,7-tetrahydro-benzothiazol-6-yl)-amine] | 21.7 ± 10.6 | 2 | 61.3 ± 19.1 | 103.5 | – | – | – | – | – |
| CCCN(CCN1CCN(C(=O)c2cccc3ccccc23)CC1)C1CCc2ncsc2C1 (centres unmarked) [Compound 39, [2-(4-Naphthoyl-piperazin-1-yl)-ethyl]-propyl-(4,5,6,7-tetrahydro-benzothiazol-6-yl)-amine] | 12.9 ± 3.8 | 247 | 3180 ± 1730 | – | fast acting | short acting | – | – | – |
| CCCN[C@H]1CCc2nc(N)sc2C1 [pramipexole, (S)-2-amino-4,5,6,7-tetra-hydro-6-(propylamino)benzothiazole dihydrochloride mono-hydrate] | – | – | – | – | – | – | – | – | 1-10% |

Continued, in another order:

| Ki [1] [nM] | Selectivity Ki(D2)/Ki(D3) [1] | Ki [2] [nM] | melting point [°C] | Compound | onset of action [3] | short or long acting in vivo [3] | onset and persistence of activity [3] | action at increasing doses ([3]; i.p. at 1 and 3 mg/kg) | patients who may develop oedema [4] |
| --- | --- | --- | --- | --- | --- | --- | --- | --- | --- |
| 631 ± 388 | 26 | 16700 ± 3380 | 85 | CCCN(Cc1ccc(C(=O)N(CCC)C2CCc3ncsc3C2)cc1)C1CCc2ncsc2C1 (centres unmarked) [Compound 42, N-Propyl-4-{[propyl-(4,5,6,7-tetrahydrobenzothiazol-6-yl)amino]methyl}-N-(4,5,6,7-tetrahydrobenzothiazol-6-yl)benzamide] | – | – | – | – | – |
| 29.4 ± 7.5 | 49 | 1440 ± 273 | 70 | CCCN(Cc1ccc(C(=O)N2CCN(c3ccccc3)CC2)cc1)C1CCc2ncsc2C1 (centres unmarked) [Compound 43, (4-Phenylpiperazin-1-yl)-(4-{[propyl-(4,5,6,7-tetrahydrobenzothiazol-6-yl)amino]methyl}phenyl)methanone] | – | – | – | – | – |
| 836 ± 211 | 19 | 16100 ± 8850 | 65 | CCCN(Cc1ccc(C(=O)NC2Cc3ccccc3C2)cc1)C1CCc2ncsc2C1 (centres unmarked) [Compound 44, N-Indan-2-yl-4-{[propyl-(4,5,6,7-tetrahydrobenzothiazol-6-yl)amino]methyl}benzamide] | – | – | – | – | – |
| 0.9 ± 0.05 | 1550 | 1390 ± 304 | – | CCCN(CCCCC(=O)NC1Cc2ccccc2C1)C1CCc2ncsc2C1 (centres unmarked) [Compound 67, N-(2,3-dihydro-1H-inden-2-yl)-5-(propyl-(4,5,6,7-tetrahydrobenzothiazol-6-yl)amino)pentanamide] | – | short acting | – | – | – |
| 1.54 ± 0.46 | 297 | 457 ± 228 | – | CCCN(CCCCC(=O)NC12CC3CC(CC(C3)C1)C2)C1CCc2ncsc2C1 (centres unmarked) [Compound 68, N-Adamantanyl-5-(propyl-(4,5,6,7-tetrahydrobenzothiazol-6-yl)amino)pentanamide] | – | – | sustained activity over a number of hours | – | – |
